Data reported in PMC10515382, “Aminochalcones Attenuate Neuronal Cell Death under Oxidative Damage via Sirtuin 1 Activity” (ACS Omega, 2023).

Columns and labels:
[1] = test system: H2O2-induced SH-SY5Y cells; test: Mitochondrial membrane potential (Rhodamine-123) in H2O2-induced SH-SY5Y cells; assay type: cell-based, human; details: 5 μM pretreatment, vs H2O2 alone
Method: Mitochondrial-specific fluorescent dye, Rhodamine-123 (Sigma-Aldrich, Cat. no. R8004), was used to determine the MMP. The reduction in the fluorescence signal correlated with the decrease in MMP, which referred to a decrease in the mitochondrial function. SH-SY5Y cells (200 μL) at 1.0 × 10^5 cells/mL were plated onto the 96-well plate and incubated overnight at 37 °C. Then, each well was pretreated for 3 h with 5 μM aminochalcones or resveratrol before being challenged with 400 μM H2O2 for further 24 h. Cells were then exposed to Rhodamine-123 at a final concentration of 10 μM in the culture media and incubated at 37 °C for 30 min under dark conditions. At the end of incubation, cells were washed twice with PBS to remove the excess dye. MMP levels were then measured with a microplate reader at excitation and emission wavelengths of 488 and 525 nm, respectively. The MMP of the cells was expressed as percentages compared with the control group.[80]

[2] = test system: H2O2-induced SH-SY5Y cells; test: Intracellular ROS production (DCFDA) in H2O2-induced SH-SY5Y cells; assay type: cell-based, human; details: for effect on intracellular ROS production: 5 μM pretreatment, vs H2O2 alone
Method: Green fluorescent DCF was generated by the oxidation of nonfluorescent carboxy-DCFDA, which is caused by intracellular ROS. SH-SY5Y cells (200 μL) at 1.0 × 10^5 cells/mL were seeded and incubated overnight in 96-well plates at 37 °C. Then, each well was pretreated for 3 h with 5 μM aminochalcones or resveratrol before exposure to 400 μM H2O2 for an additional 24 h. Subsequently, carboxy-H2DCFDA was introduced to the to a final concentration of 10 μM in the culture media and incubated at 37 °C for 30 min under dark conditions. Intracellular ROS production was instantly evaluated using a microplate reader at an emission wavelength of 528 nm and an excitation wavelength of 485 nm. The intracellular ROS production of the cells was expressed as percentages compared with the control group.[79]

[3] = test system: H2O2-induced SH-SY5Y cells; test: LDH assay of cell membrane damage in H2O2-induced SH-SY5Y cells; assay type: cell-based, human; details: 5 μM pretreatment, vs H2O2 alone
Method: LDH leakage into the culture medium of aminochalcones with or without H2O2-treated cells was assessed by using an LDH assay kit to determine the neuroprotective effect of aminochalcones against H2O2-induced cell damage. To prepare samples for the LDH test, 2 mL of SH-SY5Y cells at 1.0 × 10^5 cells/mL concentration was added and incubated overnight in 6-well plates at 37 °C. Then, each well was pretreated for 3 h with 5 μM aminochalcones or resveratrol before exposure to 400 μM H2O2 for another 24 h. Subsequently, the LDH assay kit (Cat. no. MAK066) from Sigma-Aldrich (St. Louis, MO, USA) was used to measure the LDH activity, following the manufacturer’s instructions. The assay relies on the conversion of lactate to pyruvate by the enzyme lactate dehydrogenase and further produces NADH as a product, giving rise to an increase in absorbance at 450 nm.

[4] = test system: H2O2-induced SH-SY5Y cells; test: Cell morphology observation in H2O2-induced SH-SY5Y cells; assay type: cell-based, human; details: 5 μM pretreatment 3 h, then 400 μM H2O2 24 h
Method: After adhering, the cells were treated with aminochalcones for 3 h. The culture media was refreshed, followed by an additional 24 h of exposure to 400 μM H2O2.

[5] = test system: H2O2-induced SH-SY5Y cells; test: Cell viability in H2O2-induced SH-SY5Y cells (MTT assay); assay type: cell-based, human; details: 5 μM pretreatment 3 h, then 400 μM H2O2 24 h; for protective effect on cell viability: vs nonpretreated group
Method: Cell viability was evaluated using the MTT assay. […] Cells were pretreated for 3 h with aminochalcones or resveratrol at various concentrations ranging from 0 to 100 μM before being incubated with 400 μM H2O2 (Sigma-Aldrich, Cat. no. 31642) for 24 h. Cells treated only with culture media, DMEM with 10% FBS, were used as the control. Each well received 5 mg/mL of MTT solution at the end of the incubation time, and the samples were then incubated at 37 °C in the dark for 2–4 h. Following the removal of the solution, 0.04 N HCl in isopropyl alcohol was added to dissolve the formazan crystals. A microplate reader programed to read at 570 nm was used to detect the MTT formazan product. The absorbance of formazan is directly proportional to the number of viable cells. The viability of the cells was expressed in percentages compared with the viability of the control group.[23]

[6] = Cytotoxicity assay (MTT) against MRC-5 cells; assay type: cell-based; details: human, MRC-5 cells (normal embryonic lung cell line), read-out: Cytotoxic activity (IC50)
Method: MRC-5 cells were grown in DMEM supplemented with 100 U/mL penicillin–streptomycin and 10% FBS. Briefly, the cells suspended in the corresponding culture medium were inoculated in 96-well microtiter plates (Corning Inc., NY, USA) at 10,000–20,000 cells per well and then incubated at 37 °C under a humidified atmosphere with 5% CO2 for 24 h. An equal volume of additional medium containing serial dilutions of test compounds, positive control (doxorubicin), or negative control (DMSO) was added to the desired final concentrations. Microtiter plates were further incubated for 48 h. The cell viability in each well was determined by staining with the MTT assay reagent (Molecular Probes, Cat. no. M6494).[75]–[77] MTT solution ([…]) was added to all wells of the assay, and the plates were incubated for 2–4 h. Subsequently, DMSO was added to dissolve the resulting formazan by sonication. The plates were read on a microplate reader (Molecular Devices, USA) using a test wavelength of 550 nm and a reference wavelength of 650 nm. The IC50 value was determined as the concentration of compound that inhibited the cell growth by 50%.

SH-SY5Y cells = test: SH-SY5Y cell viability, compounds alone (MTT assay); assay type: cell-based, human; details: compounds alone at 10 μM, no H2O2
Method: Cell viability was evaluated using the MTT assay. Briefly, 96-well plates were seeded with SH-SY5Y cells at a density of 1 × 10^5 cells/mL and allowed to attach. Cells were pretreated for 3 h with aminochalcones or resveratrol at various concentrations ranging from 0 to 100 μM before being incubated with 400 μM H2O2 (Sigma-Aldrich, Cat. no. 31642) for 24 h. Cells treated only with culture media, DMEM with 10% FBS, were used as the control. Each well received 5 mg/mL of MTT solution at the end of the incubation time, and the samples were then incubated at 37 °C in the dark for 2–4 h. Following the removal of the solution, 0.04 N HCl in isopropyl alcohol was added to dissolve the formazan crystals. A microplate reader programed to read at 570 nm was used to detect the MTT formazan product. The absorbance of formazan is directly proportional to the number of viable cells. The viability of the cells was expressed in percentages compared with the viability of the control group.[23]

Row | melting point [°C] | Structure (SMILES) | effect on mitochondrial function [1] | effect on intracellular ROS production [2] | effect on cell membrane damage [3] | effect on cell morphology [4] | protective effect on cell viability [5] | IC50 at 48 h [6] [µM] | effect on cell viability, compounds alone (SH-SY5Y cells) | activity at 5 µM ([2]; Homo sapiens, SH-SY5Y, 5 μM pretreatment 3 h, then 400 μM H2O2 24 h, H2O2 alone 135.54%, read-out: intracellular ROS production (fluorescence intensity, % of control)) [%] | viability at 5 µM ([5]; Homo sapiens, SH-SY5Y, read-out: cell viability (percentage relative to control)) [%]
1 | – | COc1ccc(/C=C/C(=O)c2ccc(N)cc2)c(OC)c1OC [Compound 2, (E)-1-(4-Aminophenyl)-3-(2,3,4-trimethoxyphenyl)prop-2-en-1-one] | prevented mitochondrial dysfunction | reduced intracellular ROS production | reduced cell membrane damage | prevented morphological aberration | significantly improved the cell viability | 99.3 ± 4.15 | – | – | –
2 | – | COc1cc(/C=C/C(=O)c2ccc(N)cc2)cc(OC)c1OC [Compound 3, (E)-1-(4-Aminophenyl)-3-(3,4,5-trimethoxyphenyl)prop-2-en-1-one] | prevented mitochondrial dysfunction | reduced intracellular ROS production | reduced cell membrane damage | prevented morphological aberration | significantly improved the cell viability | 70.3 ± 3.78 | hazardous to the treated cells | – | –
3 | 187 to 189 | COc1ccc(/C=C/C(=O)c2ccc(N)cc2)cc1O [Compound 4, (E)-1-(4-Aminophenyl)-3-(3-hydroxy-4-methoxyphenyl)prop-2-en-1-one] | – | – | – | – | low protective potential | 115.3 ± 1.05 | hazardous to the treated cells | – | –
4 | – | COc1cccc(/C=C/C(=O)c2ccc(N)cc2)c1 [Compound 5, (E)-1-(4-Aminophenyl)-3-(3-methoxyphenyl)prop-2-en-1-one] | prevented mitochondrial dysfunction | reduced intracellular ROS production | reduced cell membrane damage | prevented morphological aberration | significantly improved the cell viability | 116 ± 8.08 | – | – | –
5 | – | COc1cccc2c1C(=O)c1c(O)c3c(c(O)c1C2=O)C[C@@](O)(C(=O)CO)C[C@@H]3O[C@H]1C[C@H](N)[C@H](O)[C@H](C)O1 [doxorubicin, reference compound] | – | – | – | – | – | 3.03 ± 0.09 | – | – | –
6 | – | Oc1ccc(/C=C/c2cc(O)cc(O)c2)cc1 [resveratrol, reference compound] | – | – | – | morphological alterations were reduced | – | – | – | 123 ± 2 | 85
